Source: patent publication US20140039018A1 (priority 2011, published 2014)
≈ marks a conversion by molar mass, not a printed value. Like-named read-outs stand apart in the source and are kept apart here.

Key:
[1] = test system: Fusarium graminearum Fg15 strain; type: cell-based; conditions: 25° C., 1 week
[2] = test system: Fusarium graminearum Fg15 strain; assay: microbe, parasite or virus in culture; type: cell-based; conditions: FG15STRAIN, read-out: MIC value (minimum inhibition concentration)
[3] = test system: Fusarium graminearum H-3 strain; type: in vivo, wheat
[4] = test system: Fusarium graminearum H-3 strain; type: in vivo, barley; conditions: 18% wettable powder, 2000-fold dilution, 1500 L/ha, once in browning stage

## CC1(C)CCC(Cc2ccc(Cl)cc2)C1(O)Cn1cncn1 (stereo not shown) [metconazole]
[1]; PDA medium containing metconazole at 0.1 ppm
  toxin (DON) amount per cell weight versus medium containing no metconazole: significantly smaller
[1]; PDA medium containing metconazole at 0.2 ppm
  toxin (DON) amount per cell weight versus medium containing no metconazole: significantly smaller
[2]
  MIC: 1.56 µg/mL (≈ 4.88 µM)
[3]; 18% wettable powder, 2000-fold dilution, 1500 L/ha, once in yellowing stage or each once in flowering and yellowing stage, 2 weeks after cropping, FIG. 2
  mycotoxin (DON) in wheat grains versus grain cropped without application: significantly smaller amount of the toxin
[3]; application in the pre-cropping yellowing stage
  accumulation of the toxin in wheat grains after cropping: inhibited
[4]
  DON accumulation level in barley grain at the time of cropping: 704 ppb
[4]; room temperature storage for a half year after cropping
  DON accumulation level in barley grain after storage for a half year: 407 ppb
